Legend:
Integrin alpha-V/beta-6 [1] = molecular target: T1, Integrin alpha-V/beta-6 (Homo sapiens, UniProt P06756+P18564); assay: Displacement of fluorescein labeled GRGDLGRL from human Integrin alphaVbeta6 preincubated for 15 mins followed by fluorescein labeled GRGDLGRL addition and measured after 1 hr by fluorescence polarization assay; type: protein-complex assay
Integrin alpha-V/beta-1 = Integrin alpha-V/beta-1 (Homo sapiens, UniProt P05556+P06756); assay: Displacement of fluorescein labeled ACRGDGWC from human Integrin alphaVbeta1 preincubated for 15 mins followed by fluorescein labeled ACRGDGWC addition and measured after 1 hr by fluorescence polarization assay; type: protein-complex assay
Integrin alpha-V/beta-8 = Integrin alpha-V/beta-8 (Homo sapiens, UniProt P06756+P26012); assay: Displacement of fluorescein labeled GRGDLGRL from human Integrin alphaVbeta8 preincubated for 15 mins followed by fluorescein labeled GRGDLGRL addition and measured after 1 hr by fluorescence polarization assay; type: protein-complex assay
[2] = Octanol/water partition coefficient, logD of the compound; type: physicochemical
[3] = Clearance in Sprague-Dawley rat at 1 mg/kg, iv measured upto 24 hrs by LC/MS-MS analysis; type: ADME, organism-based; conditions: in vivo
[4] = Volume of distribution at steady state in Sprague-Dawley rat at 1 mg/kg, iv measured upto 24 hrs by LC/MS-MS analysis; type: ADME, organism-based; conditions: in vivo, read-out: Vdss
[5] = Half-life in Sprague-Dawley rat at 1 mg/kg, iv measured upto 24 hrs by LC/MS-MS analysis; type: ADME, organism-based; conditions: in vivo
Homo sapiens [6] = species: Homo sapiens; assay: Selectivity ratio of IC50 for displacement of fluorescein labeled ACRGDGWC from human Integrin alphaVbeta1 to IC50 for displacement of fluorescein labeled GRGDLGRL from human Integrin alphaVbeta6
Homo sapiens [7] = species: Homo sapiens; assay: Selectivity ratio of IC50 for displacement of fluorescein labeled GRGDLGRL from human Integrin alphaVbeta8 to IC50 for displacement of fluorescein labeled GRGDLGRL from human Integrin alphaVbeta6
Integrin alpha-V/beta-6 [8] = molecular target: T1, Integrin alpha-V/beta-6; assay: Binding affinity to human Integrin alphaVbeta6 overexpressed in HEK293 cells incubated for 15 mins in presence of human serum by flow cytometry assay; type: cell-based
[9] = Oral bioavailability in Sprague-Dawley rat at 10 mg/kg measured upto 24 hrs by LC/MS-MS analysis; type: ADME, organism-based; conditions: in vivo

Sequence of Integrin alpha-V/beta-8 (P06756 31-889 limits assumed): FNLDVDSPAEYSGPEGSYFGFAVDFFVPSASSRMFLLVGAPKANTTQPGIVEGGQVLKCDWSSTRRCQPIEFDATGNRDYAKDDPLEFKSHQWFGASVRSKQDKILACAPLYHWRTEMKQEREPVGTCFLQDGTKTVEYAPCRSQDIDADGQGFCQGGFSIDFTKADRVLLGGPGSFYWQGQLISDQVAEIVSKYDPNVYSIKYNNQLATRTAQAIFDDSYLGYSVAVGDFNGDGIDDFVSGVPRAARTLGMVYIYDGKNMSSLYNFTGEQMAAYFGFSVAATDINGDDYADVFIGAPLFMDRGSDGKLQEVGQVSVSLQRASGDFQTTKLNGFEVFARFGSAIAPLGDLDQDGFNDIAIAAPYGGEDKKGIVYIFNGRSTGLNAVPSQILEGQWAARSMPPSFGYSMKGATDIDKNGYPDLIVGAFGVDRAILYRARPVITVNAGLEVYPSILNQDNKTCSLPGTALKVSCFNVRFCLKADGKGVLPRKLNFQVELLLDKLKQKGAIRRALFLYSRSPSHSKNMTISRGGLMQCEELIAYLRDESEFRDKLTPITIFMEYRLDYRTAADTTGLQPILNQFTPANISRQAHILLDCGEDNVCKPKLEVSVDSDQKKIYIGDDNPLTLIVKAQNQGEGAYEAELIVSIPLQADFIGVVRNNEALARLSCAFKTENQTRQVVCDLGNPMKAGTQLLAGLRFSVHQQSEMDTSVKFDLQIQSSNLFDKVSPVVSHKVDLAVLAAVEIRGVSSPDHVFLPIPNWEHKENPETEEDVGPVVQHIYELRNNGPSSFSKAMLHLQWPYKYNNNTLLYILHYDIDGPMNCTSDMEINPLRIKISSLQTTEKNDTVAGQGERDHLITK
Sequence of Integrin alpha-V/beta-8 (P06756 891-1048 limits assumed): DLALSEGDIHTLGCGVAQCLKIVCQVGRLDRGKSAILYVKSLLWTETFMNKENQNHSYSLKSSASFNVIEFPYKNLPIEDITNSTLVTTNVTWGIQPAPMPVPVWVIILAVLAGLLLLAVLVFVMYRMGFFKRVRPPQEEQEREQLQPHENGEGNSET
Sequence of Integrin alpha-V/beta-8 (P26012 43-769 limits assumed): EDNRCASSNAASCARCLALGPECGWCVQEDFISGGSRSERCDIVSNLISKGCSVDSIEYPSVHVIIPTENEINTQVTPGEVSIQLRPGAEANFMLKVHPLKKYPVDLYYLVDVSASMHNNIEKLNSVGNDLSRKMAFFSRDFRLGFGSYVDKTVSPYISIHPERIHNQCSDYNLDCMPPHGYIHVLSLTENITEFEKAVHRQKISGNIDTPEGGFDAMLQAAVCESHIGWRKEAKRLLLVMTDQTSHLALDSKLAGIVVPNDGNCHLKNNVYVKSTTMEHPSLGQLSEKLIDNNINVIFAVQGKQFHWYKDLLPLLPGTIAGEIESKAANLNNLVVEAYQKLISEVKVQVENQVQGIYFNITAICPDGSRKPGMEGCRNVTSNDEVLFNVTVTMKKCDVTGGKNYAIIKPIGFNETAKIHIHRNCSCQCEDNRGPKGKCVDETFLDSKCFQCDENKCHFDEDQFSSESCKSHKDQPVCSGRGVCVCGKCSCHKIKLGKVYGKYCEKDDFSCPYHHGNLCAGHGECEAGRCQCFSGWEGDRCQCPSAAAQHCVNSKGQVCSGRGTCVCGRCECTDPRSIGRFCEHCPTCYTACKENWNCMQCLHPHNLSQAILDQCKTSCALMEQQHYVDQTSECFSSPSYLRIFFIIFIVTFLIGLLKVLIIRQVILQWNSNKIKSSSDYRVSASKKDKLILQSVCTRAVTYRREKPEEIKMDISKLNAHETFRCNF
T1 sequence (P06756 31-889 limits assumed): as the sequence (P06756 31-889 limits assumed) above
T1 sequence (P06756 891-1048 limits assumed): as the sequence (P06756 891-1048 limits assumed) above
T1 sequence (P18564 22-788 limits assumed): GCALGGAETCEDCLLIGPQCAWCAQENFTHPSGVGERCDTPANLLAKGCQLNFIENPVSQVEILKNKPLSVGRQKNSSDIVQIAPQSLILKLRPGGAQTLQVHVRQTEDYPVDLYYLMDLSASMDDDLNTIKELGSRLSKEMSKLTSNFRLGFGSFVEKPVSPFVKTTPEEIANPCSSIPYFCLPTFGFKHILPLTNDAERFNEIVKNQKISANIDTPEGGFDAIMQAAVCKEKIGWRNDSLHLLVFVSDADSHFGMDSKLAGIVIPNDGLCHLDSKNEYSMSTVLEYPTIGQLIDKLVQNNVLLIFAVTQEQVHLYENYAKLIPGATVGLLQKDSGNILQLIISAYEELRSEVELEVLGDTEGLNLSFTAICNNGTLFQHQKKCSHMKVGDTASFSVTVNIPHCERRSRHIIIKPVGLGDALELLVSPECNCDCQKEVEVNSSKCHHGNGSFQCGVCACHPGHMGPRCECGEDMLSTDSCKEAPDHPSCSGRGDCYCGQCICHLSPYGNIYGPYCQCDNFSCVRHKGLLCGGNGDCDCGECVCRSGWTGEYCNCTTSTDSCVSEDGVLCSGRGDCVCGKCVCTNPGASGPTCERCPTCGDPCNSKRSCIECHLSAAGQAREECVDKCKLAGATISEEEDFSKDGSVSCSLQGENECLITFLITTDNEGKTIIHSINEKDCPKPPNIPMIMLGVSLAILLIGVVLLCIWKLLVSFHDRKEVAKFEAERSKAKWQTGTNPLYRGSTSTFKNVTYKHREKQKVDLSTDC
Sequence of Integrin alpha-V/beta-1 (P05556 21-798 limits assumed): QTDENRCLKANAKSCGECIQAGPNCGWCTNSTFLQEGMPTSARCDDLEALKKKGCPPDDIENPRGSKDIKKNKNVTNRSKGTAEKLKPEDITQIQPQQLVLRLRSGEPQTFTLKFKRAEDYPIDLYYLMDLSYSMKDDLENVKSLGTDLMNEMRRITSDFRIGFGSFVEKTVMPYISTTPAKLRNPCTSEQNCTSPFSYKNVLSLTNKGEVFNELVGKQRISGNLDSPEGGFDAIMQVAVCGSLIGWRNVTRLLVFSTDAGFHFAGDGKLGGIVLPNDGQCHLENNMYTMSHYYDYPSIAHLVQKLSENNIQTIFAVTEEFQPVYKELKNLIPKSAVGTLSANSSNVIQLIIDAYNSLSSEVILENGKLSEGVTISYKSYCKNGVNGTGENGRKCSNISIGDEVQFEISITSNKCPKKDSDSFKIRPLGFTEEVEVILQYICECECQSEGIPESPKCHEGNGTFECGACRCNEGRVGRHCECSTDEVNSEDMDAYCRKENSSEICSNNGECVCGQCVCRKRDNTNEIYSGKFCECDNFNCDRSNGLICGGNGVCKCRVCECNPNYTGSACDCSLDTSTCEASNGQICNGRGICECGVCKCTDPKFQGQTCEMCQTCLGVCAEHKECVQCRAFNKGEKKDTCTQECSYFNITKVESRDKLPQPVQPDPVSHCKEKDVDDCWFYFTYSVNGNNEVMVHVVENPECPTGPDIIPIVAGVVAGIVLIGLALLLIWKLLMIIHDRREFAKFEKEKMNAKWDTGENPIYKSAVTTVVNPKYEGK
Sequence of Integrin alpha-V/beta-1 (P06756 31-889 limits assumed): as the sequence (P06756 31-889 limits assumed) above
Sequence of Integrin alpha-V/beta-1 (P06756 891-1048 limits assumed): as the sequence (P06756 891-1048 limits assumed) above

IC50 (Integrin alpha-V/beta-6 [1]) | IC50 (Integrin alpha-V/beta-1) | IC50 (Integrin alpha-V/beta-8) | logD [2] | clearance [3] | Vd [4] | half-life [5] | Ratio IC50 (Homo sapiens [6]) | Ratio IC50 (Homo sapiens [7]) | IC50 (Integrin alpha-V/beta-6 [8]) | bioavailability [9] | Compound
33 nM | 56 nM | 100 nM | 1.6 |  |  |  |  |  |  |  | O=C(O)[C@H](c1ccccc1C1CC1)N1CC[C@@H](n2cc(CCc3ccc4c(n3)NCCC4)cn2)C1
4 nM | 92 nM | 38 nM | 1.7 |  |  |  |  |  |  |  | O=C(O)[C@H](c1cc(F)ccc1C1CC1)N1CC[C@@H](OCCCCc2ccc3c(n2)NCCC3)C1
4300 nM | 1600 nM |  |  |  |  |  |  |  |  |  | O=C(O)CN1CC[C@H](C(=O)NCCCc2ccc3c(n2)NCCC3)C1
1.6 nM | 570 nM | 410 nM | 2.3 |  |  |  |  |  | 213 nM |  | CC1(C)CCO[C@H](c2ccccc2[C@@H](C(=O)O)N2CC[C@@H](OCCCCc3ccc4c(n3)NCCC4)C2)C1
4100 nM | 14000 nM |  | 0.2 |  |  |  |  |  |  |  | O=C(NCCCc1ccc2c(n1)NCCC2)C1CCN([C@H](C(=O)O)c2ccccc2)CC1
16000 nM | 30000 nM |  |  |  |  |  |  |  |  |  | O=C(NCCCc1ccc2c(n1)NCCC2)C1CCN([C@@H](C(=O)O)c2ccccc2)CC1
4.6 nM | 96 nM | 55 nM | 1.4 |  |  |  |  |  |  |  | O=C(O)[C@H](c1ccccc1C1CC1)N1CC[C@@H](OCCCCc2ccc3c(n2)NCCC3)C1
4.4 nM | 94 nM | 17 nM | 1.8 |  |  |  |  |  |  |  | O=C(O)[C@H](c1ccccc1C1CC1)N1CC[C@@H](OCCCCCc2ccc3c(n2)NCCC3)C1
8 nM | 130 nM | 130 nM | 1.7 |  |  |  |  |  |  |  | O=C(O)[C@H](c1cc(F)ccc1[C@H]1CCCCO1)N1CC[C@@H](OCCCCc2ccc3c(n2)NCCC3)C1

Continued, compound first:

Compound | IC50 (Integrin alpha-V/beta-6 [1]) | IC50 (Integrin alpha-V/beta-1) | IC50 (Integrin alpha-V/beta-8) | logD [2] | clearance [3] | Vd [4] | half-life [5] | Ratio IC50 (Homo sapiens [6]) | Ratio IC50 (Homo sapiens [7]) | IC50 (Integrin alpha-V/beta-6 [8]) | bioavailability [9]
O=C(O)[C@H](c1cccc(C2CC2)c1)N1CC[C@@H](OCCCCc2ccc3c(n2)NCCC3)C1 | 13 nM | 1100 nM | 180 nM | 1.7 |  |  |  |  |  |  | 
CC1(C)CC[C@@H](c2ccccc2[C@@H](C(=O)O)N2CC[C@@H](OCCCCc3ccc4c(n3)NCCC4)C2)OC1 | 0.8 nM | 830 nM | 430 nM | 1.5 | 50 mL/min/kg | 2.6 L/kg | 1.2 h | 1100 | 560 | 35 nM | 
O=C(NCCCc1ccc2c(n1)NCCC2)[C@@H]1CCN([C@@H](C(=O)O)c2ccccc2)C1 | 93 nM | 9500 nM | 130 nM |  |  |  |  |  |  |  | 
O=C(O)[C@H](c1ccccc1C1CCCOC1)N1CC[C@@H](OCCCCc2ccc3c(n2)NCCC3)C1 (some centres not stated) | 25 nM | 300 nM | 180 nM | 1.2 |  |  |  |  |  |  | 
CC1(C)CCCC(c2ccccc2[C@@H](C(=O)O)N2CC[C@@H](OCCCCc3ccc4c(n3)NCCC4)C2)O1 (some centres not stated) | 4.6 nM | 72 nM | 150 nM | 2.1 |  |  |  |  |  |  | 
O=C(O)[C@H](c1cc(F)ccc1[C@@H]1CCCO1)N1CC[C@@H](OCCCCc2ccc3c(n2)NCCC3)C1 | 1.9 nM | 92 nM | 134 nM | 1.5 | 13 mL/min/kg | 1.2 L/kg | 1.5 h | > 50 | > 50 | 21 nM | 41%
O=C(O)[C@H](c1cc(F)ccc1[C@H]1CCOC1)N1CC[C@@H](OCCCCc2ccc3c(n2)NCCC3)C1 | 2.8 nM | 110 nM | 190 nM | 1.1 |  |  |  |  |  | 90 nM | 
O=C(NCCCc1ccc2c(n1)NCCC2)[C@@H]1CCN([C@H](C(=O)O)c2ccccc2)C1 | 37 nM | 1900 nM | 78 nM | 0.4 |  |  |  | > 50 |  |  | 
O=C(O)[C@H](c1cc(F)ccc1C1CCOCC1)N1CC[C@@H](OCCCCc2ccc3c(n2)NCCC3)C1 | 7.8 nM | 120 nM | 100 nM | 1.3 |  |  |  |  |  | 128 nM | 
O=C(O)[C@H](c1ccccc1C1CC1)N1CC[C@@H](Oc2ccc(Cc3ccc4c(n3)NCCC4)cc2)C1 | 0.7 nM | 27 nM | 7.7 nM | 2.4 |  |  |  |  |  |  | 
O=C(O)CN1CC[C@@H](C(=O)NCCCc2ccc3c(n2)NCCC3)C1 | 790 nM | 4000 nM |  | -0.6 |  |  |  |  |  |  | 
CC1(C)CC[C@@H](c2ccc(F)cc2[C@@H](C(=O)O)N2CC[C@@H](OCCCCc3ccc4c(n3)NCCC4)C2)OC1 | 0.5 nM | 690 nM | 140 nM | 2.6 | 30 mL/min/kg | 2.4 L/kg | 1.2 h |  |  | 41 nM | 25%
O=C(O)CN1CCC(C(=O)NCCCc2ccc3c(n2)NCCC3)CC1 | 1500 nM | 650 nM | 370 nM | -0.5 |  |  |  |  |  |  | 
O=C(O)[C@H](c1ccccc1C1CC1)N1CC[C@@H](OCCCc2ccc3c(n2)NCCC3)C1 | 8.6 nM | 250 nM | 140 nM | 1.2 |  |  |  |  |  |  | 
O=C(O)[C@H](c1ccccc1C1CC1)N1C[C@@H](F)[C@@H](OCCCCc2ccc3c(n2)NCCC3)C1 | 8.5 nM | 130 nM | 140 nM | 1.4 |  |  |  |  |  |  | 
O=C(O)[C@H](c1cc(F)ccc1[C@H]1CCCO1)N1CC[C@@H](OCCCCc2ccc3c(n2)NCCC3)C1 | 12 nM | 193 nM | 155 nM | 1.4 |  |  |  |  |  |  | 
O=C(O)[C@H](c1cc(F)ccc1[C@@H]1CCCCO1)N1CC[C@@H](OCCCCc2ccc3c(n2)NCCC3)C1 | 1.6 nM | 87 nM | 74 nM |  | 29 mL/min/kg | 2.7 L/kg | 1.5 h | > 50 | > 50 | 16 nM | 38%
O=C(O)[C@H](c1ccc(C2CC2)cc1)N1CC[C@@H](OCCCCc2ccc3c(n2)NCCC3)C1 | 12 nM | 1600 nM | 300 nM | 1.7 |  |  |  |  |  |  | 
O=C(O)[C@H](c1ccccc1)N1CC[C@@H](OCCCCc2ccc3c(n2)NCCC3)C1 | 80 nM | 3900 nM | 1100 nM | 0.7 |  |  |  |  |  |  | 
O=C(O)[C@H](c1cc(F)ccc1[C@@H]1CCOC1)N1CC[C@@H](OCCCCc2ccc3c(n2)NCCC3)C1 | 4.1 nM | 170 nM | 83 nM | 1 |  |  |  |  |  |  | 
